Assays:
[1] = target: T1, JNK3 (Rattus norvegicus, UniProt P49187); assay: kinase assay (KA) on JNK3 immunoprecipitated from cell lysates; assay type: cell-based
T1 construct: cell lysates were prepared and JNK was immunoprecipitated with specific antibodies; endogenous in cells; host or cells: rat primary neuronal cultures; JNK3 immunoprecipitated from lysate
Description: JNK activity was measured with an in vitro kinase assay as described elsewhere (see, for e.g.: Khatlani et al., 2007). Briefly, cell lysates were prepared and JNK was immunoprecipitated with specific antibodies. The immnoprecipitates were then resuspended in 1× kinase buffer (Cell Signaling Technology™) supplemented with 200 μM ATP and 250 μg/ml GST-c-jun (1-89), and incubated at 30° C. for 30 min. Reactions were terminated by the addition of SDS-PAGE sample buffer. Phosphorylated c-jun was resolved by SDS-PAGE and detected with anti-p-c-jun.

[2] = test system: neuronal cultures; assay: LDH assay and PI staining, NMDA excitotoxicity-induced neuronal cell death; assay type: cell-based, rat; settings: pretreatment, NMDA challenge 1 h, 24 h survival
Description: (§1) For biochemical studies, neurons were seeded in six-well culture plates with a density of 7.5×10^5 cells per well. For LDH assay and cell death detection, 24-well culture plates were used with a neuron density of 2.5×10^5 cells per well. Neurons of 14-17 days in vitro (DIV) were used for experiments. […] HEK 293 cells were maintained in DMEM (Invitrogen™) supplemented with 10% fetal bovine serum and 1% penicillin/streptomycin. For protein expression in cell lines, cells were transfected with Calcium Phosphate Transfection reagent (Promega™, San Luis Obispo, Calif., USA) and used 24 h later as described previously (Yang et al., 2009). The JNK inhibitor, L-JNKI, was purchased from Alexis Biochemicals™ (San Diego, Calif.). Thrombin was obtained from BIOPUR™ (Bubendorf, Switzerland). Other assay reagents without indication were obtained from Sigma™.
Neuronal cultures were challenged with indicated concentrations of NMDA for 1 h, followed by 24 h survival. The release of lactate dehydrogenase (LDH) was measured with an in vitro toxicology assay kit (Sigma™) according to the manufacturer's instructions. Spectrophotometric measurement was performed on a Multilabel Plate Reader (Envision™ 2103, Perkin Elmer™). The LDH reading represents the primary absorbance at a wavelength of 490 nm after subtraction of background absorbance at 690 nm. LDH readings were then converted to a percentage of neuronal death by dividing by the readings from cultures incubated with 1% triton for 15 min representing total LDH. Following the LDH assay, propidium iodide (PI) (Sigma™) was added to the medium at a final concentration of 1 μg/ml and neurons were stained for 30 min at 30° C. After fixation with 4% paraformaldehyde, neurons were washed with 1×PBS and stained with Hoechst™ 33342 (Sigma™). The fluorescence of PI and Hoechst™ were examined with laser microscopy and analyzed with ImageJ™.

[3] = target: zD17-JNK3 interaction (Rattus norvegicus, UniProt P49187); assay: co-immunoprecipitation of zD17 with JNK3 in cortical neuronal cultures; assay type: cell-based; set-up: diminished the co-immunoprecipitation of zD17 with JNK3; endogenous in cells; host or cells: primary cortical neurons of embryonic (E18-19) Wistar rat; settings: for zD17-JNK3 interaction (co-immunoprecipitation), baseline: no NMDA
zD17-JNK3 interaction, sequence (P49187 whole entry): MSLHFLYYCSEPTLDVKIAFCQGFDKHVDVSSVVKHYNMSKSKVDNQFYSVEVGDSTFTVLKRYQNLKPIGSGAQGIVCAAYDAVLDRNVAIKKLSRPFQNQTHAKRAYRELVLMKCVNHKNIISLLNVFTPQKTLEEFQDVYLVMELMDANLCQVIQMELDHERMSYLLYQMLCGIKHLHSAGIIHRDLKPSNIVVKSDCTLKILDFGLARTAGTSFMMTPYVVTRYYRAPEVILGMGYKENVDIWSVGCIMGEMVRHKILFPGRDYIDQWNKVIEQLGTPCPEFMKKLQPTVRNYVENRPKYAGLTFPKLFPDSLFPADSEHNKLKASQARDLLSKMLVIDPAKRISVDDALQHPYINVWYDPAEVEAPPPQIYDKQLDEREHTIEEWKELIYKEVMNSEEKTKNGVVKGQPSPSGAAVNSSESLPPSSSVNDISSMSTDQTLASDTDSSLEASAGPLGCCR
Description: (§2) All animal experiments were approved by the Animal Care Committee of the University of British Columbia. Primary cortical cultures were prepared from Wistar rat (UBC Animal Care Centre, Vancouver, BC, Canada) brains at embryonic days 18-19. Cultures were maintained in Neurobasal medium supplemented with B27 and 0.5 mM glutamax (Invitrogen™) as described previously (Yang et al., 2009).
(§3) The protocols for protein extraction have been described previously (Yang et al., 2009). For co-immunoprecipitation, cultured cells were washed with ice-cold PBS followed by incubation with 0.5 ml Gentle Lysis Buffer (GLB) containing 25 mM Tris-HCl (pH 7.4), 2 mM EDTA, 1 mM EGTA, 10 mM NaCl, 0.5% Triton X-100 and 10% Glycerol supplemented with the Complete Protease Inhibitor Tablets (Roche Applied Science™, Indianapolis, Ind., USA) and 1 mM PMSF. Total protein concentration was determined with the BioRad™ Protein Assay kit. Lysates were first precleaned by incubating with Protein A-Sepharose beads (Roche Applied Science™) for 1 h at 4° C., followed by incubation with indicated antibodies (>16 h at 4° C.) and protein A Sepharose bead (2 h at 4° C.). Lysates of rat brain tissues were precleaned with IgG and protein A-beads. Immunoprecipitates were washed three times with GLB buffer; boiled in 2× loading buffer with 1 mM dithiothreitol (DTT) for 3 min; and analyzed with SDS-PAGE as described previously (Yang et al., 2009). The relative intensities of the bands on immunoblots were analyzed and quantified using Image J™ (NIH).

[4] = target: T2, zD17-JNK1 interaction (Rattus norvegicus, UniProt P49185); assay: co-immunoprecipitation of zD17 with JNK1 in neuronal cultures; assay type: cell-based
T2 construct: endogenous in cells; host or cells: primary cortical neurons of embryonic Wistar rat
T2 sequence (P49185 whole entry): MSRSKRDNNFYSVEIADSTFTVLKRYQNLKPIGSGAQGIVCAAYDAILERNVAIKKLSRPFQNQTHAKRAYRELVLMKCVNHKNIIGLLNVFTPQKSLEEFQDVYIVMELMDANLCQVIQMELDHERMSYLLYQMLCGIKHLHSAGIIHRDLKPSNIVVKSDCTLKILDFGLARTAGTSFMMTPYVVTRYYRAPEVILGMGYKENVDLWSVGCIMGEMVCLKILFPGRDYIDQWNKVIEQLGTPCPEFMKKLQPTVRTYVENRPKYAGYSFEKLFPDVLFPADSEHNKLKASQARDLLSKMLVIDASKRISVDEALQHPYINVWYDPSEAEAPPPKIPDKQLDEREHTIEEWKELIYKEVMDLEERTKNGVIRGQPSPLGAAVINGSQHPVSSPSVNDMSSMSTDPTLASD
Description: as §2
as §3, with “Lysates were first precleaned by incubating with Protein A-Sepharose beads (Roche Applied Science™) for 1 h at 4° C., followed by incubation with indicated antibodies (>16 h at 4° C.) and protein A Sepharose bead (2 h at 4° C.). Lysates of rat brain tissues were precleaned with IgG and protein A-beads.” left out

[5] = target: T3, zD17-JNK2 interaction (Rattus norvegicus, UniProt P49186); assay: co-immunoprecipitation of zD17 with JNK2 in neuronal cultures; assay type: cell-based
T3 construct: endogenous in cells; host or cells: primary cortical neurons of embryonic Wistar rat
T3 sequence (P49186 whole entry): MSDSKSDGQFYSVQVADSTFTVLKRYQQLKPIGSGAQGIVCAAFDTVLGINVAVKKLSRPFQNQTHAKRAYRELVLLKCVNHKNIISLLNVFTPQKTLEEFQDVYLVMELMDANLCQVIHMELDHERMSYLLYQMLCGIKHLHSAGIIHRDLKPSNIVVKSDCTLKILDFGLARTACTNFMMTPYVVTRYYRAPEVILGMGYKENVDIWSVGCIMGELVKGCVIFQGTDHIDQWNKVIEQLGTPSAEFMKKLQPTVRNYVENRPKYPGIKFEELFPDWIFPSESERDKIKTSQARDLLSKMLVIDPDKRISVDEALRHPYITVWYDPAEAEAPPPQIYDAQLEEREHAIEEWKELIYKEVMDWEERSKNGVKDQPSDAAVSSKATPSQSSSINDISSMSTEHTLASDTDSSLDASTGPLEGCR
Description: as §2, §3

[6] = test system: cultured neurons; assay: axonal development in cultured neurons (Tau-1 labelling); assay type: cell-based, rat
Description: as §1
Cultured hippocampal neurons on glass coverslips were used for immunostaining. After treatments indicated in the text, neurons were fixed with 2% paraformaldehyde for 3 min at room temperature followed by permeabilization with ice-cold methanol for 10 min at −20° C. The coverslips were then washed three times with PBS and immunostained with appropriate antibodies dissolved in PBS for 1 h at room temperature. After washing three times with PBS, coverslips were incubated with Alexa-labeled secondary antibodies from Invitrogen for an additional 1 h. For mitochondrial detection, neuronal cultures were incubated at 37° C. for 30 min with 2 μM MitoTracker-TR (Invitrogen™). Coverslips were then fixed and mounted with ProLong Gold Antifade Reagent (Invitrogen™). Fluorescence was captured using a Zeiss Observer Z1™ microscope and all images were analyzed with ImageJ™ and processed using Adobe Photoshop™.

T1 sequence (P49187 whole entry): as the sequence (P49187 whole entry) above

For “MTPLMWAAYGTGSVGPTRLL (NIMoEmut NIMoE sequence with point mutations on three charged amino acids at positions 10, 12, and 15) [reference compound]”, the “enhancement of JNK3 activity induced by NMDA” value ([1]; neuronal cultures) was “did not selectively block enhancement”, the “excitotoxicity-induced cell death as measured by LDH release and PI staining” value [2] was “no protective effects” and the “enhancement of the zD17-JNK3 interaction induced by NMDA/excitotoxicity” value [3] was “did not selectively block enhancement”.

For N[C@@H](CCC(=O)O)C(=O)O [Glutamate, glutamate], the “zD17 interaction with JNK1, fold increase compared with control” value [4] was 1.4±0.1 fold, the “zD17 interaction with JNK3, fold increase compared with control” value [3] was 2.6±0.2 fold and the “zD17 interaction with JNK2, fold increase compared with control” value [5] was 1.7±0.2 fold.

TNF-α was tested, and the “fold increase of zD17-JNK3 interaction” value ([3]; 50 ng/ml, 6 h) was 1.53±0.11 fold.

For CCCCCCCCCCCCCCC(Br)C(=O)O (stereo not drawn) [2-BrPA, 2-bromopalmitate], the “zD17-JNK3 interaction (co-immunoprecipitation), baseline” value [3] was “robustly enhanced”.

“NVKGESALDLAKQ (listed as Homo sapiens) [DIPep1, control peptide derived from an unrelated region of zD17 (255-267), reference compound]” was tested, and the “excitotoxicity-induced cell death as measured by LDH release and PI staining” value [2] was “no protective effects”.

CN[C@H](CC(=O)O)C(=O)O [NMDA, N-methyl-D-aspartic acid] was tested, and the “zD17 interaction with JNK1, fold increase compared with control” value [4] was 1.4±0.1 fold, the “zD17 interaction with JNK3, fold increase compared with control” value [3] was 2.5±0.3 fold and the “zD17 interaction with JNK2, fold increase compared with control” value [5] was 2.1±0.4 fold.

In the case of Oc1c2ccccc2c2c3c(cccc13)N=N2 [SP600125, reference compound], the axon length ([6]; SP600125 incubation, control 161.2±3.9) was 84.9±1.6% and the “axon initiation rate normalized to control” value ([6]; incubation of cultured neurons, Tau-1 marker) was 18.2±4.1%.

With “TPLHWATRGGHLSMV (listed as Homo sapiens) [NIMoD, peptide comprising motif-D of zD17, fused to HIV-1 Tat transduction domain]” the “JNK3 basal activity” value ([1]; neuronal cultures) was “reduction of JNK3 basal activity”, the “JNK3 basal activity, fold change to control” value ([1]; pretreatment of cells 1 μM for 2 h) was 0.72±0.07 fold and the “zD17-JNK3 interaction (co-immunoprecipitation), baseline” value [3] was “significantly diminished”.

“IL-1β: cytokine used to induce inflammation stress” was tested, and the “fold increase of zD17-JNK3 interaction” value ([3]; 10 ng/ml, 16 h) was 1.88±0.23 fold.
